Results: ChEMBL document CHEMBL4261604, “Design, synthesis and biological evaluation of novel carbamodithioates as anti-proliferative agents against human cancer cells” (Eur J Med Chem, 2018)
Active and inactive are the calls of the source. The calls are words filed in the database; no cut-off is given here.

Columns and labels:
[1] = Stability of the compound in acetonitrile up to 12 hrs by HPLC analysis; format: physicochemical
[2] = Stability of the compound in methanol:water (1:1) up to 12 hrs by HPLC analysis; format: physicochemical
[3] = Drug degradation in methanol after 10 hrs at 50 degC by HPLC analysis; format: physicochemical; conditions: read-out: Drug degradation
SMMC-7721 [4] = experiment: Cell cycle arrest in human SMMC7721 cells assessed as accumulation at G2/M phase at 4 uM after 72 hrs by RNase/propidium iodide staining-based flow cytometric analysis (reference value: 24.78%); format: functional
SMMC-7721 [5] = experiment: Cell cycle arrest in human SMMC7721 cells assessed as accumulation at S phase at 4 uM after 72 hrs by RNase/propidium iodide staining-based flow cytometric analysis (reference value: 7.96%); format: functional
A-375 [6] = experiment: Antiproliferative activity against human A375 cells assessed as inhibition of cell proliferation at 32 uM after 72 hrs by CCK8 assay; format: functional; conditions: A-375, 72 h
SMMC-7721 [7] = experiment: Induction of apoptosis in human SMMC7721 cells assessed as early apoptotic cells at 4 uM after 72 hrs by Alexa Fluor 488 Annexin/propidium iodide staining-based flow cytometric analysis (reference value: 0.70%); format: functional
SMMC-7721 [8] = experiment: Induction of apoptosis in human SMMC7721 cells assessed as viable cells at 4 uM after 72 hrs by Alexa Fluor 488 Annexin/propidium iodide staining-based flow cytometric analysis (reference value: 91.92%); format: functional; conditions: SMMC-7721, 72 h, read-out: Activity
HCT-116 = experiment: cells; conditions: Homo sapiens, HCT-116, 72 h
Description: Antiproliferative activity against human HCT116 cells after 72 hrs by CCK8 assay

A-375 [9] = experiment: Antiproliferative activity against human A375 cells after 72 hrs by CCK8 assay; format: functional, cell-based; conditions: A-375, 72 h
SMMC-7721 [10] = experiment: Induction of apoptosis in human SMMC7721 cells assessed as early apoptotic cells at 8 uM after 72 hrs by Alexa Fluor 488 Annexin/propidium iodide staining-based flow cytometric analysis (reference value: 0.70%); format: functional
SMMC-7721 [11] = experiment: Induction of apoptosis in human SMMC7721 cells assessed as late apoptotic cells at 8 uM after 72 hrs by Alexa Fluor 488 Annexin/propidium iodide staining-based flow cytometric analysis (reference value: 0.62%); format: functional
A549 = experiment: cells; conditions: Homo sapiens, A549, 72 h
Description: Antiproliferative activity against human A549 cells after 72 hrs by CCK8 assay

SMMC-7721 [12] = experiment: Induction of apoptosis in human SMMC7721 cells assessed as viable cells at 8 uM after 72 hrs by Alexa Fluor 488 Annexin/propidium iodide staining-based flow cytometric analysis (reference value: 91.92%); format: functional; conditions: SMMC-7721, 72 h, read-out: Activity
SMMC-7721 [13] = experiment: Inhibition of colony formation in human SMMC7721 cells at 2 to 8 uM after 7 days by crystal violet staining-based assay; format: functional, cell-based
SMMC-7721 [14] = experiment: Cell cycle arrest in human SMMC7721 cells assessed as accumulation at S phase at 8 uM after 72 hrs by RNase/propidium iodide staining-based flow cytometric analysis (reference value: 7.96%); format: functional
A-375 [15] = experiment: Antiproliferative activity against human A375 cells assessed as inhibition of cell proliferation at 16 uM after 72 hrs by CCK8 assay; format: functional; conditions: A-375, 72 h
HeLa = experiment: Antiproliferative activity against human HeLa cells after 72 hrs by CCK8 assay; format: functional, cell-based
SMMC-7721 [16] = experiment: Induction of apoptosis in human SMMC7721 cells assessed as necrotic cells at 4 uM after 72 hrs by Alexa Fluor 488 Annexin/propidium iodide staining-based flow cytometric analysis (reference value: […]); format: functional
SMMC-7721 [17] = experiment: Cell cycle arrest in human SMMC7721 cells assessed as accumulation at G0/G1 phase at 8 uM after 72 hrs by RNase/propidium iodide staining-based flow cytometric analysis (reference value: 67.26%); format: functional
SMMC-7721 [18] = experiment: Cell cycle arrest in human SMMC7721 cells assessed as accumulation at G0/G1 phase at 4 uM after 72 hrs by RNase/propidium iodide staining-based flow cytometric analysis (reference value: 67.26%); format: functional
SMMC-7721 [19] = experiment: Antiproliferative activity against human SMMC7721 cells after 72 hrs by CCK8 assay; format: functional, cell-based; conditions: SMMC-7721, 72 h
SMMC-7721 [20] = experiment: Antiproliferative activity against human SMMC7721 cells assessed as inhibition of cell proliferation at 16 uM after 72 hrs by CCK8 assay; format: functional; conditions: SMMC-7721, 72 h
SMMC-7721 [21] = experiment: Induction of apoptosis in human SMMC7721 cells assessed as late apoptotic cells at 4 uM after 72 hrs by Alexa Fluor 488 Annexin/propidium iodide staining-based flow cytometric analysis (reference value: 0.62%); format: functional
SMMC-7721 [22] = experiment: Antiproliferative activity against human SMMC7721 cells assessed as inhibition of cell proliferation at 32 uM after 72 hrs by CCK8 assay; format: functional; conditions: SMMC-7721, 72 h
SMMC-7721 [23] = experiment: Cell cycle arrest in human SMMC7721 cells assessed as accumulation at G2/M phase at 8 uM after 72 hrs by RNase/propidium iodide staining-based flow cytometric analysis (reference value: 24.78%); format: functional
SMMC-7721 [24] = experiment: Induction of apoptosis in human SMMC7721 cells assessed as necrotic cells at 8 uM after 72 hrs by Alexa Fluor 488 Annexin/propidium iodide staining-based flow cytometric analysis (reference value: […]); format: functional

For CC(=O)NCCSC(=S)NCCCC[S+](C)[O-] (stereo unspecified), the Stability [1] was “Stable” and the Stability [2] was “Stable”.

In the case of COc1ccc(SC(=S)NCCCC[S+](C)[O-])cc1 (stereo unspecified), the Stability [1] is reported as “Unstable”, the Stability [2] is reported as “Unstable” and the degraded at 10 h [3] is reported as < 6%.

For COc1ccc(SC(=S)NCC/C=C/[S+](C)[O-])cc1 (stereo unspecified), the Stability [1] was “Unstable”, the Stability [2] was “Unstable” and the degraded at 10 h [3] was 25%.

For CC(=O)NCCSC(=S)NCC/C=C/[S+](C)[O-] (stereo unspecified), the Stability [1] was “Stable” and the Stability [2] was “Stable”.

C[S+]([O-])/C=C/CCN=C=S (stereo unspecified) gave a degraded at 10 h [3] of 60%.

For C[S+]([O-])CCCCN=C=S (stereo unspecified) [SULFORAPHANE], the Activity (SMMC-7721 [4]) was 26.8%, the Activity (SMMC-7721 [5]) was 5.41% and the inhibition at 32 µM (A-375 [6]) was 77.3%. The Activity (SMMC-7721 [7]) was 4.66%, the viability at 4 µM (SMMC-7721 [8]) was 88.4% and the IC50 (HCT-116) was 36.7 µM. It also gave an IC50 (A-375 [9]) of 24.5 µM, an Activity (SMMC-7721 [10]) of 14.43% and an Activity (SMMC-7721 [11]) of 9.09%. The IC50 (A549) was 11.9 µM, the viability at 8 µM (SMMC-7721 [12]) was 66.9% and the inhibition (SMMC-7721 [13]) was “Active”. For the same compound, the Activity (SMMC-7721 [14]) was 5.46%, the inhibition at 16 µM (A-375 [15]) was 54% and the IC50 (HeLa) was 66.1 µM. The Activity (SMMC-7721 [16]) was 4.14%, the Activity (SMMC-7721 [17]) was 66.19% and the Activity (SMMC-7721 [18]) was 68.06%. The IC50 (SMMC-7721 [19]) was 7.87 µM, the inhibition at 16 µM (SMMC-7721 [20]) was 80.5% and the Activity (SMMC-7721 [21]) was 2.82%. It also gave an inhibition at 32 µM (SMMC-7721 [22]) of 88.3%, an Activity (SMMC-7721 [23]) of 28.35% and a degraded at 10 h [3] of 60%. For the same compound, the Activity (SMMC-7721 [24]) was 9.59%.
